# Patent US20030211036A1, “Method and apparatus for monitoring and quantitatively evaluating tumor perfusion” (priority 2002, published 2003)
# Columns and labels:
# [1] = HDO concentration in mice plasma by 2H-MRS during and post 2H-saline i.v. infusion (arterial input function); assay type: in vivo
# Experimental: (§1) Enrichment of the mice's blood with HDO (99.8%) was achieved by applying a slow i.v. infusion of I ml ^2H-saline with a rate of 100 μl/min.
# Blood samples ([…]) were drawn from anesthetized mice by retro orbital sinus puncture at 7 time points, 3 mice for each time point, during and post ^2H saline infusion. Samples were collected into separate tubes containing heparin (50 units/ml of blood, Elkins-Sinn Inc., Cherry Hill, N.J.) and were centrifuged at room temperature. The plasma supernatant samples were separated and transferred into 5 mm NMR tubes. ^2H-MR spectra of the plasma samples were recorded at 61.4 MHz on DMX-400 spectrometer (Bruker Analytik, Germany), with a broad-band probe by applying 90° pulses with 4 s repetition time (fully relaxed conditions). Choline-(CD3)3 was added to each plasma sample as an internal reference for concentration.
# The 2-compartment kinetic model related the concentration of the tracer in the tissue to tissue's perfusion, as shown by Eq. [3]. Thus, knowledge of the changing arterial tracer concentration over time, termed arterial input function, was required for the numerical solution of the model. In order to obtain qualitative ^2H-images of the tumors and to allow monitoring of HDO uptake with high spatial resolution, a slow i.v. infusion of ^2H-saline, 1 ml in 10 min. was applied. This protocol enriched the content of HDO in the plasma, which is 0.0148% at natural abundance, by 6.8% of HDO that is below toxic levels (13, 14). HDO concentration in the plasma, determined by ^2H-MRS, was monitored during and post-^2H saline infusion (FIG. 1A). During the infusion, HDO accumulated linearly with a correlation coefficient, R^2, of 0.996. The slow decay of HDO in the plasma, post-infusion, approximated linearity with R^2=0.730. Thus, a linear regression analysis of the blood input function Cp(t), was applied in parts, producing two linear functions: (i) during ^2H-saline infusion at t=t0−tinfus, Cp(t)=f(t)=at+b and (ii) post ^2H-saline infusion at t=tinfus−tend, Cp(t)=g(t)=ct+d. […] The plasma concentrations of HDO before and at the end of ^2H-saline infusion were b=0.016 mmol·ml^−1 and d=7.69 mmol·ml^−1, respectively.
# [2] = tested on: orthotopic MCF7 human breast cancer tumors; assay: Dynamic 3D 2H-MRI of HDO perfusion with two-compartment model-based analysis per voxel; assay type: in vivo, CD1-NU mice
# Description: A two-compartment model was custom developed for this activity to describe the kinetics of HDO in MCF7 tumors. The model, designed by Yeung et al. (41) to calculate blood brain transfer constant, is a special case of Patlak's blood-brain exchange model (31, 32). In the present work, the two compartments were assigned to the intravascular space with its respective volume fraction vp and the extravascular space, with its effective volume fraction of water ve* which is approximately 70% of the actual extravascular volume ve (ve*=0.7 ve) their respective volume fraction vp and ve* where,
# The experimental kinetic data were fitted to Eq. [7] and Eq. [8] with two free parameters: K and vp, using the following substitutions: ve*=1−vp and kb=K/(1−vp). Deuterium signal intensity per pixel in arbitrary units was converted to Cv(t) in mmol/ml using a calibration solution of known deuterium concentration in saline solution ( 9.9 mmol/ml).
# The method and apparatus of the present invention were tested experimentally according to the following protocol. Female CD1-NU athymic mice, 6 weeks old, were orthotopically inoculated in the mammary fat pad with MCF7 human breast cancer cells as previously described (33). Tumors were allowed to develop for 4-8 weeks, to sizes ranging between 0.2-2 cm^3 with average size 0.8±0.2 cm^3. For the MRI measurements, mice were anesthetized by exposure to 1% isoflurane (Medeva Pharmaceuticals, Inc., Rochester, N.Y.), in an O2/N2O (3:7) mixture, applied through a nose cone. Approval was obtained for all animal procedures according to the guidelines of the Committee on Animals of the Weizmann Institute of Science.
# as §1
# In-vivo imaging was accomplished by taking MR images and recording with a 4.7 T Biospec spectrometer (Bruker Analytik, Germany). ^2H and ^1H images were recorded at frequencies of 30.7 MHz and 200 MHz, respectively, and detected by a home-built double-tuned ^2H/^1H surface coil system, 1.5/2.5 cm in diameter. Dynamic ^2H MR images were acquired utilizing a 3-dimensional (3D) gradient echo sequence with the following parameters: echo time (TE)=3 msec, […] (TR)=60 msec, flip angle=45° achieved by an adiabatic pulse (sin/cos), 2 averages, matrix—128×64×16, 2.6 mm slice thickness, an in-plane resolution of 1×2 mm2 and acquisition time of 2.05 min. The sequential acquisition of ^2H-images began with a pre-infusion image and continued throughout ^2H-saline iv. infusion, into the tail vein of the mouse (1 ml/10 min.), and for 30 minutes thereafter. The pre-infusion images were recorded with a tube containing 9.9 mmol/ml HDO in saline solution, attached to the tumor. This served to calibrate the signal intensity to deuterium concentration in units of mmol/ml.
# Image analysis was applied on the time evolution of ^2H intensity in a series of coronal images that were reconstructed from dynamic 3D images of the whole tumor acquired before, during and post ^2H-saline infusion. Analysis was performed utilizing a nonlinear least-square fitting algorithm, developed for the purpose of the invention, at a voxel resolution. The computed analysis initially converted ^2H intensity to concentration by referring to the intensity at the pre-infusion image (t=0) in the attached calibration tube that contained a solution of HDO at a concentration of 9.9 mmol/ml. […]
# [3] = cited from earlier work
# [4] = General well-being of the animals under the slow i.v. 2H-saline infusion protocol; assay type: in vivo, mice; settings: i.v. infusion of 1 ml 2H-saline at 100 μl/min
# Experimental: as §1
structure (smiles),measurement,setting,value
"[2H]O[2H] [HDO, deuterated water]",plasma concentration of HDO before 2H-saline infusion (b),"[1]; mice plasma, before infusion",16000 µM
same,plasma concentration of HDO at the end of 2H-saline infusion (d),"[1]; mice plasma, end of i.v. infusion, 1 ml in 10 min",7.69e+06 µM
same,rate of HDO clearance from plasma post infusion (c),"[1]; mice plasma, post 2H-saline infusion, linear regression g(t)=ct+d",-0.07 mmol/mL/min
same,rate of HDO accumulation in plasma during infusion (a),"[1]; mice plasma, slow i.v. infusion of 2H-saline, 1 ml in 10 min, linear regression f(t)=at+b",0.67 mmol/mL/min
same,enrichment of the content of HDO in the plasma,"[1]; slow i.v. infusion of 2H-saline, 1 ml in 10 min, natural abundance 0.0148%",6.8%
same,concentration of HDO in the plasma upon infusion with respect to bolus injection,[1]; slow i.v. infusion versus bolus injection of 200 μl,~6 times higher
same,"K, fit to the HDO perfusion kinetic model","[2]; FIG. 3 single voxel (a), R^2=0.94",0.0016 min⁻¹
same,"K, fit to the HDO perfusion kinetic model","[2]; FIG. 3 single voxel (b), R^2=0.94",0.0005 min⁻¹
same,"K, fit to the HDO perfusion kinetic model","[2]; FIG. 3 single voxel (c), R^2=0.96",0.0031 min⁻¹
same,range of the perfusion rate per voxel,"[2]; all voxels of the parametric maps, seven MCF7 tumors",4e-06 to 0.0039 min⁻¹
same,"Perfusion rate, K, Mean, Average",[2]; average of the total population of voxels in the ROIs of all tumors (n = 1278 pixels),1.02 ± 0.02 ·10^−3 min^−1
same,HDO enrichment of body fluids considered nontoxic,[3],up to 10%
same,adverse effects on the general well-being of the animals,[4],no adverse effects
